Data on four molecules can be found in PubChem BioAssay AID1963831 (Molecular Pharmacology Branch, DTP, NCI, 2024).
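Further: spheroids exposed to compounds for seven days; 100% = DMSO vehicle control viability.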

The first assay relates to 889142-216-R-J1-PDC complex spheroid viability. Put plainly: Anticancer human tumor 889142-216-R-J1-PDC patient-derived bladder carcinoma cell line growth inhibition [POLQ]. Particulars: second compound 0.0316 µM; first compound 3.16 µM; hits give low values. In outline: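 Growth inhibition in 3D: complex spheroids (tumor PDC, HUVEC, MSC) treated with POLQ inhibitor combinations; where Cmax unknown, highest tested concentration 10 microM, except SN-38 at 1 microM.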
What is called viability, T/C is the result in the treated group divided by that in the control group, in per cent. In the case of `CCc1cc2c(N3CCc4c(cc(Cn5ccnc5)cc4-c4cn(C)nc4C(F)(F)F)C3=O)cc(C)nc2c(OC)n1` + Cc1cccc(N(C)C(=O)C2C(O)CCN2c2nc(C)cc(C(F)(F)F)c2C#N)c1, the viability, T/C is 91.3%.

Regarding `COc1cc2cc(C(=O)CCC(=O)O)sc2cc1OC` + Cc1cccc(N(C)C(=O)C2C(O)CCN2c2nc(C)cc(C(F)(F)F)c2C#N)c1, the viability, T/C was 104%.

Still in this assay, the particulars now being: second compound 0.0316 µM; first compound 10 µM; hits give low values.
As to `C#Cc1c(F)ccc2cc(O)cc(-c3ncc4c(N5CC6CCC(C5)N6)nc(OCC56CCCN5CC(F)C6)nc4c3F)c12` (configuration not stated) + Cc1cccc(N(C)C(=O)C2C(O)CCN2c2nc(C)cc(C(F)(F)F)c2C#N)c1, the viability, T/C is 31.1%.

As for `C=CC(=O)N1CCN(c2nc(=O)n(-c3c(C)ccnc3C(C)C)c3nc(-c4c(O)cccc4F)c(F)cc23)C(C)C1` (configuration not stated) + Cc1cccc(N(C)C(=O)C2C(O)CCN2c2nc(C)cc(C(F)(F)F)c2C#N)c1, the viability, T/C was 81.4%.

As to `CCc1cc2c(N3CCc4c(cc(Cn5ccnc5)cc4-c4cn(C)nc4C(F)(F)F)C3=O)cc(C)nc2c(OC)n1` + Cc1cccc(N(C)C(=O)C2C(O)CCN2c2nc(C)cc(C(F)(F)F)c2C#N)c1, the viability, T/C is 80.8%.

On to `COc1cc2cc(C(=O)CCC(=O)O)sc2cc1OC` + Cc1cccc(N(C)C(=O)C2C(O)CCN2c2nc(C)cc(C(F)(F)F)c2C#N)c1, for which the viability, T/C is 76.6%.

The assay is the same for the next values; noted with them: second compound 0.1 µM; first compound 0.0316 µM; hits give low values.
Take `C#Cc1c(F)ccc2cc(O)cc(-c3ncc4c(N5CC6CCC(C5)N6)nc(OCC56CCCN5CC(F)C6)nc4c3F)c12` (configuration not stated) + Cc1cccc(N(C)C(=O)C2C(O)CCN2c2nc(C)cc(C(F)(F)F)c2C#N)c1: the viability, T/C was 104%.

With `C=CC(=O)N1CCN(c2nc(=O)n(-c3c(C)ccnc3C(C)C)c3nc(-c4c(O)cccc4F)c(F)cc23)C(C)C1` (configuration not stated) + Cc1cccc(N(C)C(=O)C2C(O)CCN2c2nc(C)cc(C(F)(F)F)c2C#N)c1, the viability, T/C was 110%.

With `CCc1cc2c(N3CCc4c(cc(Cn5ccnc5)cc4-c4cn(C)nc4C(F)(F)F)C3=O)cc(C)nc2c(OC)n1` + Cc1cccc(N(C)C(=O)C2C(O)CCN2c2nc(C)cc(C(F)(F)F)c2C#N)c1, the viability, T/C is 119%.

Consider `COc1cc2cc(C(=O)CCC(=O)O)sc2cc1OC` + Cc1cccc(N(C)C(=O)C2C(O)CCN2c2nc(C)cc(C(F)(F)F)c2C#N)c1, for which the viability, T/C is 76.5%.

The assay is the same for the next values; noted with them: second compound 0.1 µM; first compound 0.1 µM; hits give low values.
For `C#Cc1c(F)ccc2cc(O)cc(-c3ncc4c(N5CC6CCC(C5)N6)nc(OCC56CCCN5CC(F)C6)nc4c3F)c12` (configuration not stated) + Cc1cccc(N(C)C(=O)C2C(O)CCN2c2nc(C)cc(C(F)(F)F)c2C#N)c1, the viability, T/C is 100%.

For the molecule `C=CC(=O)N1CCN(c2nc(=O)n(-c3c(C)ccnc3C(C)C)c3nc(-c4c(O)cccc4F)c(F)cc23)C(C)C1` (configuration not stated) + Cc1cccc(N(C)C(=O)C2C(O)CCN2c2nc(C)cc(C(F)(F)F)c2C#N)c1, the viability, T/C is 112%.

In the case of `CCc1cc2c(N3CCc4c(cc(Cn5ccnc5)cc4-c4cn(C)nc4C(F)(F)F)C3=O)cc(C)nc2c(OC)n1` + Cc1cccc(N(C)C(=O)C2C(O)CCN2c2nc(C)cc(C(F)(F)F)c2C#N)c1, the viability, T/C was 98.8%.

Take `COc1cc2cc(C(=O)CCC(=O)O)sc2cc1OC` + Cc1cccc(N(C)C(=O)C2C(O)CCN2c2nc(C)cc(C(F)(F)F)c2C#N)c1: the viability, T/C was 101%.

The assay is the same for the next values; noted with them: second compound 0.1 µM; first compound 0.316 µM; hits give low values.
With `C#Cc1c(F)ccc2cc(O)cc(-c3ncc4c(N5CC6CCC(C5)N6)nc(OCC56CCCN5CC(F)C6)nc4c3F)c12` (configuration not stated) + Cc1cccc(N(C)C(=O)C2C(O)CCN2c2nc(C)cc(C(F)(F)F)c2C#N)c1, the viability, T/C is 78.3%.

As to `C=CC(=O)N1CCN(c2nc(=O)n(-c3c(C)ccnc3C(C)C)c3nc(-c4c(O)cccc4F)c(F)cc23)C(C)C1` (configuration not stated) + Cc1cccc(N(C)C(=O)C2C(O)CCN2c2nc(C)cc(C(F)(F)F)c2C#N)c1, the viability, T/C is 100%.

As for `CCc1cc2c(N3CCc4c(cc(Cn5ccnc5)cc4-c4cn(C)nc4C(F)(F)F)C3=O)cc(C)nc2c(OC)n1` + Cc1cccc(N(C)C(=O)C2C(O)CCN2c2nc(C)cc(C(F)(F)F)c2C#N)c1, the viability, T/C was 105%.

For the molecule `COc1cc2cc(C(=O)CCC(=O)O)sc2cc1OC` + Cc1cccc(N(C)C(=O)C2C(O)CCN2c2nc(C)cc(C(F)(F)F)c2C#N)c1, the viability, T/C was 92.7%.

Still in this assay, the particulars now being: second compound 0.1 µM; first compound 1 µM; hits give low values.
Regarding `C#Cc1c(F)ccc2cc(O)cc(-c3ncc4c(N5CC6CCC(C5)N6)nc(OCC56CCCN5CC(F)C6)nc4c3F)c12` (configuration not stated) + Cc1cccc(N(C)C(=O)C2C(O)CCN2c2nc(C)cc(C(F)(F)F)c2C#N)c1, the viability, T/C is 97.8%.

`C=CC(=O)N1CCN(c2nc(=O)n(-c3c(C)ccnc3C(C)C)c3nc(-c4c(O)cccc4F)c(F)cc23)C(C)C1` (configuration not stated) + Cc1cccc(N(C)C(=O)C2C(O)CCN2c2nc(C)cc(C(F)(F)F)c2C#N)c1: the viability, T/C was 101%.

Turning to `CCc1cc2c(N3CCc4c(cc(Cn5ccnc5)cc4-c4cn(C)nc4C(F)(F)F)C3=O)cc(C)nc2c(OC)n1` + Cc1cccc(N(C)C(=O)C2C(O)CCN2c2nc(C)cc(C(F)(F)F)c2C#N)c1, the viability, T/C was 114%.

On to `COc1cc2cc(C(=O)CCC(=O)O)sc2cc1OC` + Cc1cccc(N(C)C(=O)C2C(O)CCN2c2nc(C)cc(C(F)(F)F)c2C#N)c1, for which the viability, T/C is 115%.

Staying with this assay, now noted: second compound 0.1 µM; first compound 3.16 µM; hits give low values.
As for `C#Cc1c(F)ccc2cc(O)cc(-c3ncc4c(N5CC6CCC(C5)N6)nc(OCC56CCCN5CC(F)C6)nc4c3F)c12` (configuration not stated) + Cc1cccc(N(C)C(=O)C2C(O)CCN2c2nc(C)cc(C(F)(F)F)c2C#N)c1, the viability, T/C is 62%.

Regarding `C=CC(=O)N1CCN(c2nc(=O)n(-c3c(C)ccnc3C(C)C)c3nc(-c4c(O)cccc4F)c(F)cc23)C(C)C1` (configuration not stated) + Cc1cccc(N(C)C(=O)C2C(O)CCN2c2nc(C)cc(C(F)(F)F)c2C#N)c1, the viability, T/C is 132%.

For the molecule `CCc1cc2c(N3CCc4c(cc(Cn5ccnc5)cc4-c4cn(C)nc4C(F)(F)F)C3=O)cc(C)nc2c(OC)n1` + Cc1cccc(N(C)C(=O)C2C(O)CCN2c2nc(C)cc(C(F)(F)F)c2C#N)c1, the viability, T/C is 109%.

For the molecule `COc1cc2cc(C(=O)CCC(=O)O)sc2cc1OC` + Cc1cccc(N(C)C(=O)C2C(O)CCN2c2nc(C)cc(C(F)(F)F)c2C#N)c1, the viability, T/C is 104%.

The assay is the same for the next values; noted with them: second compound 0.1 µM; first compound 10 µM; hits give low values.
For the molecule `C#Cc1c(F)ccc2cc(O)cc(-c3ncc4c(N5CC6CCC(C5)N6)nc(OCC56CCCN5CC(F)C6)nc4c3F)c12` (configuration not stated) + Cc1cccc(N(C)C(=O)C2C(O)CCN2c2nc(C)cc(C(F)(F)F)c2C#N)c1, the viability, T/C was 31.9%.

Regarding `C=CC(=O)N1CCN(c2nc(=O)n(-c3c(C)ccnc3C(C)C)c3nc(-c4c(O)cccc4F)c(F)cc23)C(C)C1` (configuration not stated) + Cc1cccc(N(C)C(=O)C2C(O)CCN2c2nc(C)cc(C(F)(F)F)c2C#N)c1, the viability, T/C was 96.2%.

On to `CCc1cc2c(N3CCc4c(cc(Cn5ccnc5)cc4-c4cn(C)nc4C(F)(F)F)C3=O)cc(C)nc2c(OC)n1` + Cc1cccc(N(C)C(=O)C2C(O)CCN2c2nc(C)cc(C(F)(F)F)c2C#N)c1, for which the viability, T/C is 96.8%.

For the molecule `COc1cc2cc(C(=O)CCC(=O)O)sc2cc1OC` + Cc1cccc(N(C)C(=O)C2C(O)CCN2c2nc(C)cc(C(F)(F)F)c2C#N)c1, the viability, T/C is 90.6%.

Staying with this assay, now noted: second compound 0.316 µM; first compound 0.0316 µM; hits give low values.
For the molecule `C#Cc1c(F)ccc2cc(O)cc(-c3ncc4c(N5CC6CCC(C5)N6)nc(OCC56CCCN5CC(F)C6)nc4c3F)c12` (configuration not stated) + Cc1cccc(N(C)C(=O)C2C(O)CCN2c2nc(C)cc(C(F)(F)F)c2C#N)c1, the viability, T/C is 90.2%.

In the case of `C=CC(=O)N1CCN(c2nc(=O)n(-c3c(C)ccnc3C(C)C)c3nc(-c4c(O)cccc4F)c(F)cc23)C(C)C1` (configuration not stated) + Cc1cccc(N(C)C(=O)C2C(O)CCN2c2nc(C)cc(C(F)(F)F)c2C#N)c1, the viability, T/C was 97.4%.

As for `CCc1cc2c(N3CCc4c(cc(Cn5ccnc5)cc4-c4cn(C)nc4C(F)(F)F)C3=O)cc(C)nc2c(OC)n1` + Cc1cccc(N(C)C(=O)C2C(O)CCN2c2nc(C)cc(C(F)(F)F)c2C#N)c1, the viability, T/C is 113%.

As to `COc1cc2cc(C(=O)CCC(=O)O)sc2cc1OC` + Cc1cccc(N(C)C(=O)C2C(O)CCN2c2nc(C)cc(C(F)(F)F)c2C#N)c1, the viability, T/C was 109%.

The assay is the same for the next values; noted with them: second compound 0.316 µM; first compound 0.1 µM; hits give low values.
On to `C#Cc1c(F)ccc2cc(O)cc(-c3ncc4c(N5CC6CCC(C5)N6)nc(OCC56CCCN5CC(F)C6)nc4c3F)c12` (configuration not stated) + Cc1cccc(N(C)C(=O)C2C(O)CCN2c2nc(C)cc(C(F)(F)F)c2C#N)c1, for which the viability, T/C was 81.3%.

For `C=CC(=O)N1CCN(c2nc(=O)n(-c3c(C)ccnc3C(C)C)c3nc(-c4c(O)cccc4F)c(F)cc23)C(C)C1` (configuration not stated) + Cc1cccc(N(C)C(=O)C2C(O)CCN2c2nc(C)cc(C(F)(F)F)c2C#N)c1, the viability, T/C was 119%.

In the case of `CCc1cc2c(N3CCc4c(cc(Cn5ccnc5)cc4-c4cn(C)nc4C(F)(F)F)C3=O)cc(C)nc2c(OC)n1` + Cc1cccc(N(C)C(=O)C2C(O)CCN2c2nc(C)cc(C(F)(F)F)c2C#N)c1, the viability, T/C is 111%.

Take `COc1cc2cc(C(=O)CCC(=O)O)sc2cc1OC` + Cc1cccc(N(C)C(=O)C2C(O)CCN2c2nc(C)cc(C(F)(F)F)c2C#N)c1: the viability, T/C is 92.6%.

The same assay, now with this note: second compound 0.316 µM; first compound 0.316 µM; hits give low values.
For `C#Cc1c(F)ccc2cc(O)cc(-c3ncc4c(N5CC6CCC(C5)N6)nc(OCC56CCCN5CC(F)C6)nc4c3F)c12` (configuration not stated) + Cc1cccc(N(C)C(=O)C2C(O)CCN2c2nc(C)cc(C(F)(F)F)c2C#N)c1, the viability, T/C was 66.4%.

In the case of `C=CC(=O)N1CCN(c2nc(=O)n(-c3c(C)ccnc3C(C)C)c3nc(-c4c(O)cccc4F)c(F)cc23)C(C)C1` (configuration not stated) + Cc1cccc(N(C)C(=O)C2C(O)CCN2c2nc(C)cc(C(F)(F)F)c2C#N)c1, the viability, T/C is 123%.

In the case of `CCc1cc2c(N3CCc4c(cc(Cn5ccnc5)cc4-c4cn(C)nc4C(F)(F)F)C3=O)cc(C)nc2c(OC)n1` + Cc1cccc(N(C)C(=O)C2C(O)CCN2c2nc(C)cc(C(F)(F)F)c2C#N)c1, the viability, T/C is 137%.

In the case of `COc1cc2cc(C(=O)CCC(=O)O)sc2cc1OC` + Cc1cccc(N(C)C(=O)C2C(O)CCN2c2nc(C)cc(C(F)(F)F)c2C#N)c1, the viability, T/C was 72.3%.
